Target: human GnRHr (Homo sapiens (Human), UniProt P30968)
Assay: Human GnRHr (GnRH receptor) activity assay, Fluo-4 calcium signal in Human GnRHr/CHO stably transfected cell lines
Assay type: cell-based
Settings: Human GnRHr/CHO cells, GnRH polypeptide stimulant
Procedure: Test Example 1. Human GnRHr (GnRH Receptor) Activity Assay of the Present Compounds.
In vitro GnRHr protein activity was tested by the following methods.
This assay was used to determine the inhibition effect of the present compound on the activity of human GnRHr protein expressed by Human GnRHr/CHO stably transfected cell lines.
A mammalian expression vector containing the human GnRHr gene was transferred into CHO cells by adding Lipofectamine® LTX reagent containing Plus™. Antibiotics were added the next day for screening to pick out the monoclonal cell lines.
The Human GnRHr/CHO stably transfected cell lines were inoculated in 96-well plates with an inoculation density of 25,000 cells/well. The culture medium was removed the next day, and loading buffer containing Fluo-4 dye was added to the plate (100 μL/well) and incubated for 30 minutes at 37° C. The plate was moved to room temperature and equilibrated for 10 minutes. Each compound was diluted with DMSO to seven concentration gradients of 100 μM, 10 μM, 1 μM, 0.1 μM, 0.01 μM, 0.001 μM, 0.0001 μM. Then, 1 μl of each gradient was added to each well and incubated for 10 minutes at room temperature. After automated addition of 50 μL of GnRH polypeptide stimulant solution, the value was immediately detected at 494/516 […] by a microplate reader (flexstation 3). IC50 values of the compounds were calculated by software from different fluorescence signals at various corresponding concentrations.
The inhibitory activity of the present compounds on human GnRHr was determined by the above assay, and IC50 values are shown in Table 1.

Chain of human GnRHr (P30968 whole entry): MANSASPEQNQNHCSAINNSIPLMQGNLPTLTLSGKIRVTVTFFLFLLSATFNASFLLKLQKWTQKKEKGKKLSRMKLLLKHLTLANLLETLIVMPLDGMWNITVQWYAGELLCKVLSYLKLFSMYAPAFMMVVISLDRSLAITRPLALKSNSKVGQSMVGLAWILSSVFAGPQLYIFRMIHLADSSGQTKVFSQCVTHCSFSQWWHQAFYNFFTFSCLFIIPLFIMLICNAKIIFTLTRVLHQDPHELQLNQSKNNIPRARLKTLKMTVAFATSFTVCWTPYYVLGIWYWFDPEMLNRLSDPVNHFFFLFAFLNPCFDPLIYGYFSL

## CONC(=O)Nc1ccc(-n2nc3c(c2CN(C)C)c(=O)n(-c2ccc(OC)nn2)c(=O)n3Cc2c(F)cccc2F)cc1 [Example 11, 1-(4-(7-(2,6-difluorobenzyl)-3-((dimethylamino)methyl)-5-(6-methoxypyridazin-3-yl)-4,6-dioxo-4,5,6,7-tetrahydro-2H-pyrazolo[3,4-d]pyrimidin-2-yl)phenyl)-3-methoxyurea]
  IC50: 4.95 nM

Reference: patent US10344034B2, “Pyrazolopyrimidone or Pyrrolotriazone derivatives, method of preparing same, and pharmaceutical applications thereof” (Shanghai Hengrui Pharmaceutical Co., Ltd., priority 2013, dated 2019)
